Experimental data as given in PMC7501995 (Cell metabolism, 2020).

Key:
[1] = tested on: C57BL/6J mice rendered diabetic by multiple low-dose STZ; assay: Multiple low-dose STZ-induced diabetes in C57BL/6J mice; assay type: in vivo, mouse; conditions: STZ mice
human subjects with T1D = conditions: ref Ovalle et al., 2018; cited from earlier work

In the case of `OC[C@H]1O[C@@H](c2ccc(Cl)c(Cc3ccc(O[C@H]4CCOC4)cc3)c2)[C@H](O)[C@@H](O)[C@@H]1O` [empagliflozin, reference compound], the glucose homeostasis ([1]; empagliflozin 10 mg/kg/day in drinking water) is reported as “improved glucose homeostasis”.
In the case of `CN(C)C(=N)N=C(N)N` [metformin, reference compound], the glucose homeostasis ([1]; metformin 250 mg/kg/day in drinking water) is reported as “improved glucose homeostasis”.
For `COc1ccc(CCN(C)CCCC(C#N)(c2ccc(OC)c(OC)c2)C(C)C)cc1OC` (stereo not drawn) [verapamil], the “effect in randomized controlled trial in human subjects with T1D” value (human subjects with T1D) is given as “beneficial effects”.
